Assay results from patent publication US10300451B2, “Method for generating an affinity reagent library” (priority 2013, dated 2019).
“Also recorded” adds a separate entry of the source.

Legend:
[1] = system: αVβ6-dependent adhesion of carcinoma cells to immobilised fibronectin; test: Picogreen adhesion assay on fibronectin; type: cell-based, human; details: fibronectin 10 ug/ml
Protocol: All adhesion assays were performed in quadruplicate and repeated at least 2-3 times. In a 96-well plate format, test wells were coated with Fibronectin (10 ug/ml/PBS) and negative control wells were coated with 0.1% BSA (bovine serum albumin)/PBS. After incubation at 37° C. for 1 hour, plates were washed in PBS thwice and blocked with 0.1% BSA/PBS for 30 mins at 37° C. Following a PBS rinse, cells were seeded into the wells, the plate resting on ice to avoid dehydration and to ensure an initial uniform temperature for the experiment. Purified scFv or peptide was added (25 ul) to the wells at the desired concentrations, before adding 1.5×10^4 cells (25 ul) per well. In some experiments, cells (1.5×10^4) were pre-treated with β1 blocking antibody AIIB2 at 10 ug/ml before seeding into test wells. To determine percentage adhesion, standard curves were generated by plating 0-2.5×10^4 cells in separate wells. After incubating plates at 37° C. for 30′ plates were washed twice in 1 mM CaCl2/0.5 mM MgCl2/PBS and transferred into −80° C. for 15 mins. Adherent cells were quantified using a Picogreen kit (Invitrogen) and analysed on a fluorescence reader (FLUOstar Optima, BMG Labtech Ltd, Bucks, UK).

cellular αVβ6 = target: T1, cellular αVβ6 (Homo sapiens, UniProt P06756+P18564); test: Screening for integrin specificity by flow cytometry (A375Pβ6 vs A375Ppuro cells); type: cell-based
T1 construct: A375puro endogenously express the RGD directed integrins α5β1, αVβ3, αVβ5 and αVβ8; expressed in transfected cells; host or cells: A375Pβ6 (αVβ6-positive), with A375Ppuro as the αVβ6-negative control
Protocol: Purified scFv were tested for specificity for αVβ6 by flow cytometry using the isogenic pairs of cell lines, […] and A375Ppuro, which express similar levels of four RGD-binding integrins (αVβ3, αVβ5, αVβ8, α5β1) but only […] express αVβ6. Briefly, cells were detached with trypsin/EDTA, rinsed twice in ice-cold wash buffer (0.1% BSA/DMEM/0.1% NaN3) and 2×10^5 cells re-suspended in 50 μl of wash buffer per sample. In between all incubation steps, all samples were washed twice with wash buffer unless otherwise stated. Cells were incubated on ice for 1 hr with 0.1 or 1 uM purified scFv of peptide, washed twice. For scFv, cells were then incubated for 1 hr on ice with mouse anti-Myc antibody (clone 9E10, Santa Cruz) at 1:100. After washing, bound antibody was detected with anti-mouse IgG-Alexaflour 488 (1:250 for 1 h; Molecular Probes), on ice. Bound VH-CDR3 derived peptide were detected by rabbit anti-biotin IgG (1:200), followed by anti-rabbit IgG-Alexafluor 488 (1:250; Molecular Probes). Cells were analysed using the FACSCalibur (Beckton Dickinson). Cell expression of αVβ6 integrin was detected with mouse monoclonal antibody (clone 10D5, 10 μg/ml; Millipore) and non-specific (control) binding with non-immune class matched IgG.

αVβ6-expressing cells = test: Internalisation assay (confocal microscopy); type: cell-based, human; details: for intracellular localisation after incubation: 37° C. for 45 minutes, αVβ6-expressing cells; for cellular internalisation in αVβ6-expressing cells: 37° C., 0 and 45 minutes
Protocol: In 24-well culture plates, 2×10^4 cells (DX3puro, DX3β6 or VB6) were seeded onto 13 mm diameter glass coverslips and allowed to incubate overnight at 37° C. in growth medium. Cells were washed thwice in serum free medium (SFM) and then scFv (4 uM) or biotinylated-CDR3-peptide (100 nM) diluted in SFM added on ice for 10 mins. After two ice-cold washes and a further 10 mins on ice with mouse anti-biotin antibody (10 ug/ml) pre-warmed media containing 10% FCS was added to the cells and incubated at 37° C. At 10 min intervals between 0-60 mins, cells were fixed in 2% HCHO in PBS and permeabilised with 0.1% TritonX-100 (PBS) for 3 mins. scFv was detected with mouse anti c-myc (1:100 dilution, clone 9E10; 30 mins, ambient temperature) and followed by while peptides were detected by rabbit anti-biotin IgG (1:200). Both peptide and scFv detected with anti-mouse Alexa488 for 30′. Nuclei were counter-labelled with 4′,6-diamidino-2-phenylindole (DAPI), coverslips mounted with Mowiol and samples examined by confocal microscopy (Zeiss LSM510, Welwyn Garden City).

αVβ6 = target: T2, αVβ6 (Homo sapiens, UniProt P06756+P18564); test: Inhibition of biotinylated-A20FMDV2 binding to αVβ6 expressing cells; type: cell-based; details: scFv or peptide 0.1 and 1.0 μM; biotinylated A20FMDV2 10 nM
T2 construct: A375puro endogenously express the RGD directed integrins α5β1, αVβ3, αVβ5 and αVβ8; expressed in transfected cells; host or cells: αVβ6-expressing cells; The method paragraph names no line
T2 sequence (P06756 31-889 limits assumed): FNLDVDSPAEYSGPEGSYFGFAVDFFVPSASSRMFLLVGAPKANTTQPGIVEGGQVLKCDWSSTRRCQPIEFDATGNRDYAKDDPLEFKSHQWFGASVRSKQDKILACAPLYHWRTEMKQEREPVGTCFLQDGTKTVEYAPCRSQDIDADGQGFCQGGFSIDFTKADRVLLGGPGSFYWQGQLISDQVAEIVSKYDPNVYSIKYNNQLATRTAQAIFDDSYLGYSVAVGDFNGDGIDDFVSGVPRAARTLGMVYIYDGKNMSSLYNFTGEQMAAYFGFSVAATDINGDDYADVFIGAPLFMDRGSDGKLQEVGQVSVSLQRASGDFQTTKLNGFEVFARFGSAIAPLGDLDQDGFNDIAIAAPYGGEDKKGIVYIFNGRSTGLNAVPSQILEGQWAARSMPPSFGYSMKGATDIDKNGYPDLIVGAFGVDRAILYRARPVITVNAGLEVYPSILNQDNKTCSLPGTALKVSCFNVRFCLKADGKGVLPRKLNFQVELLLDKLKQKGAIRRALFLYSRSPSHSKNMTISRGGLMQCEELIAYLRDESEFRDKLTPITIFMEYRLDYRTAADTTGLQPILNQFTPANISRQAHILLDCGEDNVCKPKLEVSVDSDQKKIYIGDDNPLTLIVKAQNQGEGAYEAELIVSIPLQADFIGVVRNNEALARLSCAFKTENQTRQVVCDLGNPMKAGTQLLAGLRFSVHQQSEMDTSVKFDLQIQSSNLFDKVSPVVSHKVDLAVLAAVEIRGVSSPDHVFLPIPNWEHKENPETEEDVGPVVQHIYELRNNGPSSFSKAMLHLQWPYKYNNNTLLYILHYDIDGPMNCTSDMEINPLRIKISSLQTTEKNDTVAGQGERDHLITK
T2 sequence (P06756 891-1048 limits assumed): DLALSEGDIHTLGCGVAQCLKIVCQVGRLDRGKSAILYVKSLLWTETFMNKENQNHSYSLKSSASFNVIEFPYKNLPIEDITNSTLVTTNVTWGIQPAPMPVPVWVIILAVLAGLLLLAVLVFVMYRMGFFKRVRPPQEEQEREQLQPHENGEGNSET
T2 sequence (P18564 22-788): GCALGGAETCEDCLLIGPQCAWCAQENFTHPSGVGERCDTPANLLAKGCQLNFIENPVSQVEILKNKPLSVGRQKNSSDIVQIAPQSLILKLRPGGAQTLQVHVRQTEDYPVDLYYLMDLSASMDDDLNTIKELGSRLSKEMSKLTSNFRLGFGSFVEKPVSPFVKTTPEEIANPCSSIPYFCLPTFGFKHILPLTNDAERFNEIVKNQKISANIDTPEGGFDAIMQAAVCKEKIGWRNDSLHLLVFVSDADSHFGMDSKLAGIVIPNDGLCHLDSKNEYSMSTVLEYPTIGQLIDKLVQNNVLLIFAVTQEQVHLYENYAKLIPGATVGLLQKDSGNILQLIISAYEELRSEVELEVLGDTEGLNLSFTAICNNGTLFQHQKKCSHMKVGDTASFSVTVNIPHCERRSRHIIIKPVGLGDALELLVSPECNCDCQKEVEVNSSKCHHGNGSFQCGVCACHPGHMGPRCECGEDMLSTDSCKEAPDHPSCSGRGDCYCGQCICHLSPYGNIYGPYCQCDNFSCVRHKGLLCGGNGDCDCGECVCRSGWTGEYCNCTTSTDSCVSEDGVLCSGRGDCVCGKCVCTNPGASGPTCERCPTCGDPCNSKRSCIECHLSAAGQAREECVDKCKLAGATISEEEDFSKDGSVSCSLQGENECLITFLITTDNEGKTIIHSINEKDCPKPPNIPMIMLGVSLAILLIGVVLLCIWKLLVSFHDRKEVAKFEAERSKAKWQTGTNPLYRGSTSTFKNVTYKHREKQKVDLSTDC

T1 sequence (P06756 31-889 limits assumed): as the sequence (P06756 31-889 limits assumed) above
T1 sequence (P06756 891-1048 limits assumed): as the sequence (P06756 891-1048 limits assumed) above
T1 sequence (P18564 22-788): as the sequence (P18564 22-788) above

Sequence	inhibition of αVβ6-dependent adhesion of carcinoma cells to immobilised fibronectin [1]	binding to αVβ6-expressing cells (flow cytometry) (cellular αVβ6)	intracellular localisation after incubation (αVβ6-expressing cells)	cellular internalisation in αVβ6-expressing cells (αVβ6-expressing cells)	cellular internalisation in αVβ6-negative cells (αVβ6-expressing cells)	inhibition of binding of A20FMDV2 peptide to cellular αvβ6 (αVβ6)
EPRGDLRTLAAREKRNFNETLARLQEKGI (Peptide sequence comprising RGD motif followed by a C-terminal alpha-helix or 3(10)-helix) [D25p]	inhibited; also recorded: significant concentration-dependent inhibition	αVβ6-specific binding	nuclear localisation was not seen	Internalisation	No peptide internalization was observed	dose-dependent inhibition
QPRGDLRELAARSEAQLQEKGI (Peptide sequence comprising RGD motif followed by a C-terminal alpha-helix or 3(10)-helix) [D34p]	inhibited; also recorded: significant concentration-dependent inhibition	αVβ6-specific binding	nuclear localisation was not seen	Internalisation	No peptide internalization was observed	dose-dependent inhibition
